Our source for the IC50 and DC50 values is patent US11926634B2, “Processes for the preparation of selective estrogen receptor degraders” (Eli Lilly and Company, priority 2022, dated 2024).

Some results are limits rather than exact numbers.

The experiment deals with T1, hERα (Homo sapiens, UniProt P03372).
T1 construct: ERα degradation High Content Imaging assays in MCF7 ESR1 Wild Type cells; endogenous in cells; host or cells: MCF7 (ESR1 wild type)
T1 sequence (P03372 1-595): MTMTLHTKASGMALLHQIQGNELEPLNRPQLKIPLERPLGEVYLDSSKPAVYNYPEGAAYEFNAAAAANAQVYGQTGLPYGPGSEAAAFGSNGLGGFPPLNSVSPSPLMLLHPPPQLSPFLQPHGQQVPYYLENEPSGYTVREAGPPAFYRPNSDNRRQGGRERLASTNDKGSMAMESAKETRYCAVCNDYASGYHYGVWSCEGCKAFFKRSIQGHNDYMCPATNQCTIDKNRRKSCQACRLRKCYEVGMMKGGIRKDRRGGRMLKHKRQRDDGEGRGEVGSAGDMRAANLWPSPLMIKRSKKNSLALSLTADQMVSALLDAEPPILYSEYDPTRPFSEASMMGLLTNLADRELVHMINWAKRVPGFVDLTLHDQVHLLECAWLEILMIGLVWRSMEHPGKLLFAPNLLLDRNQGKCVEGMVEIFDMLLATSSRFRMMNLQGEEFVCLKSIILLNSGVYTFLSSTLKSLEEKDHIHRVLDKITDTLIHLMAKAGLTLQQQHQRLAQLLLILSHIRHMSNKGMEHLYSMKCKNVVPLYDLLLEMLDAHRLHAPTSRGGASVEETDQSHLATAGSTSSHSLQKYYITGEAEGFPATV
As to the kind of experiment: ERα degradation high content imaging assay in MCF7 cells. It counts as cell-based. Particulars: MCF7 ESR1 Wild Type cells; output % estrogen receptor positive cells; read-out: Relative IC50 (μM), hERα Degradation Cell Assay in MCF7 Cells. The procedure: Cells were fixed by adding 14% paraformaldehyde (10 μL) for 30 min at RT. The cells were washed once with PBS (20 μL) and incubated with PBS (20 μL per well) containing 0.5% (v/v) TWEEN® 20 for 1 h. Cells were washed with PBS containing 0.05% TWEEN® 20 (2×) and blocked with 3% BSA in PBS containing 0.05% TWEEN® and 0.1% TRITON™ X-100 (20 μL/well) for 1 h at RT. A 1:500 dilution of Primary antibody (20 μL) (ERα (Clone SP1) monoclonal rabbit antibody #RM-9101-S, Thermo Scientific) in 1% BSA in PBS containing 0.05% TWEEN® 20 was added, the plates were sealed and incubated overnight at 4° C. The following day the cells were washed with PBS containing 0.05% TWEEN® 20 (2×) and incubated with secondary antibody ([…]) (1:1000 dilution, Goat anti-rabbit IgM ALEXA FLUOR™ 488) in PBS 1% BSA for 105 min at RT. After incubation plates were washed with PBS (2×20 μL), and PBS (20 μL) containing RNase (Sigma) (50 μg/mL) and 1:1000 propidium iodide dilution was added per well. Plates were sealed and incubated 1 h at RT (preserved from light). The plates were scanned with ACUMEN EXPLORER™ [Laser-scanning fluorescence microplate cytometer manufactured by TTP LABTECH LTD] to measure ERa. Image analysis was based on cellular fluorescent signals for identifying positive cells. Estrogen receptor positive cells were identified by mean intensity. Total intensity at 575-640 nm from propidium iodide/DNA was used to identify individual cells. Assay output was % estrogen receptor positive cells. The IC50 was determine by curve fitting to a four-parameter logistic for each output using GENE DATA™. Raw data (FLU) were plotted as nonlinear regression through […]© tool. Data was analyzed using a 4-parameter nonlinear logistic equation (four-parameter logistic concentration-response curve): Y=bot+[(top-bot)/1+(x/IC50) slope] where Y=% inhibition, x=concentration yielding y % inhibition, Bottom=minimum value of y attained by curve, Top=maximum value of y attained by curve and Slope=steepness of curve at IC50. % Inh=[(median Max−x/median Max−median Min)]×100.
In the case of `O=C(c1ccc(OCCN2CC(CF)C2)cc1)c1c(-c2ccc(C(F)(F)F)cc2F)cnc2cc(O)ccc12`, the IC50 was determined as 0.00216 µM. As for `CCOC(COc1ccc(C(O)c2c(-c3ccc(C(F)(F)F)cc3F)cnc3cc(O)ccc23)cc1)OCC` (stereo not shown), the DC50 was over 2 µM. The same measure, in the same setting: the value for `CCOC(COc1ccc(C(=O)c2c(-c3ccc(C(F)(F)F)cc3F)cnc3cc(O)ccc23)cc1)OCC` was over 2 µM; that for `O=CCOc1ccc(C2Oc3cc(C(F)(F)F)ccc3-c3cnc4cc(O)ccc4c32)cc1` (stereo not shown) was over 2 µM; that for `Oc1ccc2c(C(O)c3ccc(OCCN4CC(CF)C4)cc3)c(-c3ccc(C(F)(F)F)cc3F)cnc2c1` (stereo not shown) was 0.278 ± 0.126 µM. As for `O=C(c1ccc(OCCN2CC(CF)C2)cc1)c1c(Cl)cnc2cc(O)ccc12`, the DC50 came out at 0.126 ± 0.0442 µM. The same measure, in the same setting: under `CCOC(COc1ccc(C2Oc3cc(C(F)(F)F)ccc3-c3cnc4cc(O)ccc4c32)cc1)OCC` (stereo not shown) stands over 2 µM.

Usually IC50 stands for the point on the concentration scale where inhibition reaches its midpoint.
